Measurements: ChEMBL document CHEMBL5463721, “Data for DCP probe WEB2086” (2023)

Assays:
[1] = target: Angiotensin-converting enzyme (Homo sapiens) (UniProt P12821); assay: Activity against ACE(HU_AMTCH400) in the Eurofins Cerep SafetyScreen44 (BI) by Photometry (Cerep_3441); details: Compound concentration 10.0 uM
[2] = target: Histamine H1 receptor (Homo sapiens) (UniProt P35367); assay: H1 Eurofins-Cerep binding assay; parameters: ligand concentration 1 nM; details: Compound concentration 10.0 uM
[3] = target: Prostaglandin G/H synthase 2 (Homo sapiens) (UniProt P35354); assay: Inhibitor of COX-2 in the Eurofins Cerep SafetyScreen44 (BI) by Fluorimetry (Cerep_4186); details: Compound concentration 10.0 uM
[4] = target: Glutamate NMDA receptor (Rattus norvegicus) (UniProt P35439+Q00959+Q00960+Q00961+Q62645+Q8VHN2+Q9R1M7); assay: Inhibitor of NMDA/R in the Eurofins Cerep SafetyScreen44 (BI) by Radioactive Assay (Cerep_66); format: protein-complex assay; details: Compound concentration 10.0 uM
[5] = target: Sodium-dependent dopamine transporter (Homo sapiens) (UniProt Q01959); assay: dopamine transporter Eurofins-Cerep binding assay; details: Compound concentration 10.0 uM
[6] = target: Alpha-2A adrenergic receptor (Homo sapiens) (UniProt P08913); assay: Inhibitor of ALPHA2A/HU in the Eurofins Cerep SafetyScreen44 (BI) by Radioactive Assay (Cerep_13); details: Compound concentration 10.0 uM
[7] = target: Vasopressin V1a receptor (Homo sapiens) (UniProt P37288); assay: V1a Eurofins-Cerep binding assay; parameters: ligand concentration 0.3 nM; details: Compound concentration 10.0 uM
[8] = target: 5-hydroxytryptamine receptor 1A (Homo sapiens) (UniProt P08908); assay: 5-HT1A Eurofins-Cerep binding assay; parameters: ligand concentration 0.5 nM; details: Compound concentration 10.0 uM
Rattus norvegicus [9] = organism: Rattus norvegicus; assay: Activity against BZD/CENTR/R in the Eurofins Cerep SafetyScreen44 (BI) by Radioactive Assay (Cerep_28); format: protein-complex assay; details: Compound concentration 10.0 uM
[10] = target: 5-hydroxytryptamine receptor 2B (Homo sapiens) (UniProt P41595); assay: 5-HT2B Eurofins-Cerep binding assay; details: Compound concentration 10.0 uM
[11] = target: cGMP-inhibited 3',5'-cyclic phosphodiesterase 3A (Homo sapiens) (UniProt Q14432); assay: Inhibitor of PDE3A in the Eurofins Cerep SafetyScreen44 (BI) by HTRF-homogeneous time resolved fluoresce (Cerep_4072); details: Compound concentration 10.0 uM
[12] = target: Cannabinoid receptor 2 (Homo sapiens) (UniProt P34972); assay: Activity against CB2/PERIPH/H in the Eurofins Cerep SafetyScreen44 (BI) by Radioactive Assay (Cerep_37); details: Compound concentration 10.0 uM
Cannabinoid receptor 2 (Homo sapiens), sequence (P34972 whole entry): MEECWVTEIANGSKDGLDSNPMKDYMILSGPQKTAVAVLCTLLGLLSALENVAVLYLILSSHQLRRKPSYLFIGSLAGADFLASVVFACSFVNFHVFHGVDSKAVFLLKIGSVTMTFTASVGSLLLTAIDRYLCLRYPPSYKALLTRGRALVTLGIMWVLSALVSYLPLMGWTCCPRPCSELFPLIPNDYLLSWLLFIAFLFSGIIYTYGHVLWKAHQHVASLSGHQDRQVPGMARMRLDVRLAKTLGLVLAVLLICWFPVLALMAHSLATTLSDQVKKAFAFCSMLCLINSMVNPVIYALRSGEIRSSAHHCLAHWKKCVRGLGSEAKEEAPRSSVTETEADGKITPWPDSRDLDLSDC

[13] = target: 3',5'-cyclic-AMP phosphodiesterase 4D (Homo sapiens) (UniProt Q08499); assay: Inhibitor of PDE4D2 in the Eurofins Cerep SafetyScreen44 (BI) by Scintillation counting (Cerep_4077); details: Compound concentration 10.0 uM
[14] = target: Endothelin-1 receptor (Homo sapiens) (UniProt P25101); assay: ETA Eurofins-Cerep binding assay; parameters: ligand concentration 0.03 nM; details: Compound concentration 10.0 uM
Endothelin-1 receptor (Homo sapiens), sequence (P25101 whole entry): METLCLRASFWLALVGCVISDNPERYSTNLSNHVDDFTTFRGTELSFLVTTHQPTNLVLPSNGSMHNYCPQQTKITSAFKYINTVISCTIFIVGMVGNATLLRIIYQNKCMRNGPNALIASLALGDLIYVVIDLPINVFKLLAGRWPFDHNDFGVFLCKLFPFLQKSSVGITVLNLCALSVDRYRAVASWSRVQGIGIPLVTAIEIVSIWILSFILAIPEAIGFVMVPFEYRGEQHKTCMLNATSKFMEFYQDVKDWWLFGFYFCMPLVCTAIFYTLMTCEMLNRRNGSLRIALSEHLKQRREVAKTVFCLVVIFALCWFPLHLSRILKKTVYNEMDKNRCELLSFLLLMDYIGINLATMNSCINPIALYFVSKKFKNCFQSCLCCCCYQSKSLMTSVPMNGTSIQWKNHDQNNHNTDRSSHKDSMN

[15] = target: Cannabinoid receptor 1 (Homo sapiens) (UniProt P21554); assay: CB1 Eurofins-Cerep binding assay; details: Compound concentration 10.0 uM
Cannabinoid receptor 1 (Homo sapiens), sequence (P21554 whole entry): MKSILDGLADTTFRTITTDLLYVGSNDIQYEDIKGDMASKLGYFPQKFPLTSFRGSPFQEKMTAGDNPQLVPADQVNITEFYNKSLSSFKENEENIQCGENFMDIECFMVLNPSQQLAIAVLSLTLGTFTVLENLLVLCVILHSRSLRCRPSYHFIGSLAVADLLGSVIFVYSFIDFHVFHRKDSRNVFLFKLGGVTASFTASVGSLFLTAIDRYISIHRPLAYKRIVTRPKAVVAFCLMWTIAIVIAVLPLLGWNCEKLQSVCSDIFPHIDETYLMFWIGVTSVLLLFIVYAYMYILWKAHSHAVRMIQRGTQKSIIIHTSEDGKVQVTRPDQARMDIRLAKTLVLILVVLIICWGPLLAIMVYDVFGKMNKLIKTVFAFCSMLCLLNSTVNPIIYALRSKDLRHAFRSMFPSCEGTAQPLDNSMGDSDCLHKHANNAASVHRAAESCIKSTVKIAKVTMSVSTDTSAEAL

[16] = target: Muscarinic acetylcholine receptor M3 (Homo sapiens) (UniProt P20309); assay: M3 Eurofins-Cerep binding assay; parameters: ligand concentration 0.2 nM; details: Compound concentration 10.0 uM
Muscarinic acetylcholine receptor M3 (Homo sapiens), sequence (P20309 whole entry, looked up): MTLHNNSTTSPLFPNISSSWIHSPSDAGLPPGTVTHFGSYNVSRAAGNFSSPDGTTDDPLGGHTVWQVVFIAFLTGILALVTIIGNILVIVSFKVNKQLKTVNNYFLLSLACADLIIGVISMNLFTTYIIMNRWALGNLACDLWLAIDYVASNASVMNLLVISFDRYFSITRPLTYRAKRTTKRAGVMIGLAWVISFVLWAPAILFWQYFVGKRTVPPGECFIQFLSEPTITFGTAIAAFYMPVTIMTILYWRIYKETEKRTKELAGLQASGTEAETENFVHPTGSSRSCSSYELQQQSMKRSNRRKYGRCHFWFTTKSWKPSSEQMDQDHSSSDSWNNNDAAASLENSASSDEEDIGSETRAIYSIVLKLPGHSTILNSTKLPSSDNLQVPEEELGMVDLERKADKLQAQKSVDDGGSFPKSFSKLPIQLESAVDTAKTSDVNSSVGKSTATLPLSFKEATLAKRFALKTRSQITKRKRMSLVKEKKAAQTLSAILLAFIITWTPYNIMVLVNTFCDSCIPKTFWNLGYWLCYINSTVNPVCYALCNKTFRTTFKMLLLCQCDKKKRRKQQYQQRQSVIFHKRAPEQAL

[17] = target: Mu-type opioid receptor (Homo sapiens) (UniProt P35372); assay: mu (MOP) Eurofins-Cerep binding assay; parameters: ligand concentration 0.5 nM; details: Compound concentration 10.0 uM
Mu-type opioid receptor (Homo sapiens), sequence (P35372 whole entry): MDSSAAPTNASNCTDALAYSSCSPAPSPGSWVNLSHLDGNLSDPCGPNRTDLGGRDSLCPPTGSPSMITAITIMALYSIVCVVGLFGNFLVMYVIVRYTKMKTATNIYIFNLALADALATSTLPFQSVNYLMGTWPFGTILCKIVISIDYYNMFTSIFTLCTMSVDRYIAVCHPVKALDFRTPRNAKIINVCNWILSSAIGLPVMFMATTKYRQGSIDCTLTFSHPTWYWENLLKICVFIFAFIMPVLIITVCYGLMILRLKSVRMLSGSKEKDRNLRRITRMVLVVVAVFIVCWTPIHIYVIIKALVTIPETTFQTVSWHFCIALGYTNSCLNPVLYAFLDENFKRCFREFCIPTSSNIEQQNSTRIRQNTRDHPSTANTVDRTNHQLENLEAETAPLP

[18] = target: Cholecystokinin receptor type A (Homo sapiens) (UniProt P32238); assay: CCK1 (CCKA) Eurofins-Cerep binding assay; parameters: ligand concentration 0.08 nM; details: Compound concentration 10.0 uM
[19] = target: Muscarinic acetylcholine receptor M1 (Homo sapiens) (UniProt P11229); assay: M1 Eurofins-Cerep binding assay; parameters: ligand concentration 2 nM; details: Compound concentration 10.0 uM
[20] = target: Prostaglandin G/H synthase 1 (Homo sapiens) (UniProt P23219); assay: Inhibitor of COX-1 in the Eurofins Cerep SafetyScreen44 (BI) by Fluorimetry (Cerep_4173); details: Compound concentration 10.0 uM
[21] = target: D(2) dopamine receptor (Homo sapiens) (UniProt P14416); assay: Agonist activity in the Eurofins Cerep SafetyScreen44 (BI) against D2SH_AGON by Scintillation counting (Cerep_1322); details: Compound concentration 10.0 uM
[22] = target: 5-hydroxytryptamine receptor 2A (Homo sapiens) (UniProt P28223); assay: Agonist activity in the Eurofins Cerep SafetyScreen44 (BI) against 5HT2AH_AGON by Scintillation counting (Cerep_471); details: Compound concentration 10.0 uM
[23] = target: Histamine H2 receptor (Homo sapiens) (UniProt P25021); assay: H2 Eurofins-Cerep binding assay; parameters: ligand concentration 0.075 nM; details: Compound concentration 10.0 uM
[24] = target: D(1A) dopamine receptor (Homo sapiens) (UniProt P21728); assay: D1 Eurofins-Cerep binding assay; parameters: ligand concentration 0.3 nM; details: Compound concentration 10.0 uM
[25] = target: Adenosine receptor A2a (Homo sapiens) (UniProt P29274); assay: A2A Eurofins-Cerep binding assay; parameters: ligand concentration 6 nM; details: Compound concentration 10.0 uM
[26] = target: Glucocorticoid receptor (Homo sapiens) (UniProt P04150); assay: GR Eurofins-Cerep binding assay; details: Compound concentration 10.0 uM
[27] = target: Platelet-activating factor receptor (Homo sapiens, UniProt P25105); assay: PAF Receptor Binding
[28] = target: 5-hydroxytryptamine receptor 3A (Homo sapiens) (UniProt P46098); assay: 5-HT3 Eurofins-Cerep binding assay; parameters: ligand concentration 0.5 nM; details: Compound concentration 10.0 uM
[29] = target: Kappa-type opioid receptor (Homo sapiens) (UniProt P41145); assay: kappa (KOP) Eurofins-Cerep binding assay; details: Compound concentration 10.0 uM
Rattus norvegicus [30] = organism: Rattus norvegicus; assay: KV channel Eurofins-Cerep binding assay; parameters: ligand concentration 0.01 nM; details: Compound concentration 10.0 uM
hERG (KCNH2) = hERG (KCNH2) (Homo sapiens, UniProt Q12809); assay: Inhibitor of HERG_DOFETILIDE in the Eurofins Cerep SafetyScreen44 (BI) by Scintillation counting (Cerep_4094); parameters: scale not given: the % may be the effect or the level left; details: probe [3H] dofetilide, compound concentration 10 uM, read-out: % Ctrl
hERG (KCNH2), sequence (Q12809 whole entry): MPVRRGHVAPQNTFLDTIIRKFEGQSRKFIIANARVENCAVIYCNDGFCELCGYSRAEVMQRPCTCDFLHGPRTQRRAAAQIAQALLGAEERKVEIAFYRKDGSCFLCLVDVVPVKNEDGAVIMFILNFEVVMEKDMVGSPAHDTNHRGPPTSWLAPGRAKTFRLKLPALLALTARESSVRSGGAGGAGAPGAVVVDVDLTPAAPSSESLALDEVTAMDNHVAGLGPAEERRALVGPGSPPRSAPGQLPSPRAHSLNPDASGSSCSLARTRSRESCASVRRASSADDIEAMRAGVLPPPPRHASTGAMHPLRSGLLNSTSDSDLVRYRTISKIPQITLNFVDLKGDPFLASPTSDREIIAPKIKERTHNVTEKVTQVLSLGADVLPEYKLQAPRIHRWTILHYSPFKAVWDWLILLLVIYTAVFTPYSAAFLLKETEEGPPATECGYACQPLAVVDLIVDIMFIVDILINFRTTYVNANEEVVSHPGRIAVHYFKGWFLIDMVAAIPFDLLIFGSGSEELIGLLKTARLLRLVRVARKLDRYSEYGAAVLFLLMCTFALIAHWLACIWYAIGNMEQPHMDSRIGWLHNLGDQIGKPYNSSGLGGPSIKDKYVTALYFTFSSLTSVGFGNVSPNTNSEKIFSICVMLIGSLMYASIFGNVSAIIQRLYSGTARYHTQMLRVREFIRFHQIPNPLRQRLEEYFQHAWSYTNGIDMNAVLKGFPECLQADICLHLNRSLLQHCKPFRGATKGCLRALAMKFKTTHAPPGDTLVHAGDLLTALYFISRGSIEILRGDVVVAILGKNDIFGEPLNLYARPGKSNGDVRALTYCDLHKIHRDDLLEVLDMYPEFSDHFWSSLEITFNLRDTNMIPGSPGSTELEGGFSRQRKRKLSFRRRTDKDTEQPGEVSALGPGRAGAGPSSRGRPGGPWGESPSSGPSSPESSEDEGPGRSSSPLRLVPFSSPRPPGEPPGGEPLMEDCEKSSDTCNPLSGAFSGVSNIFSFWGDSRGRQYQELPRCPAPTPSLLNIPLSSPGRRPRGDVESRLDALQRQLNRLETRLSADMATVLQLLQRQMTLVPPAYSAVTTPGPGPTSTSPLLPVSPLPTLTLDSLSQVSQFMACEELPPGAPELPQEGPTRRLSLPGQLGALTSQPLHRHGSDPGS

[31] = target: Muscarinic acetylcholine receptor M2 (Homo sapiens) (UniProt P08172); assay: M2 Eurofins-Cerep binding assay; parameters: ligand concentration 2 nM; details: Compound concentration 10.0 uM
Muscarinic acetylcholine receptor M2 (Homo sapiens), sequence (P08172 whole entry): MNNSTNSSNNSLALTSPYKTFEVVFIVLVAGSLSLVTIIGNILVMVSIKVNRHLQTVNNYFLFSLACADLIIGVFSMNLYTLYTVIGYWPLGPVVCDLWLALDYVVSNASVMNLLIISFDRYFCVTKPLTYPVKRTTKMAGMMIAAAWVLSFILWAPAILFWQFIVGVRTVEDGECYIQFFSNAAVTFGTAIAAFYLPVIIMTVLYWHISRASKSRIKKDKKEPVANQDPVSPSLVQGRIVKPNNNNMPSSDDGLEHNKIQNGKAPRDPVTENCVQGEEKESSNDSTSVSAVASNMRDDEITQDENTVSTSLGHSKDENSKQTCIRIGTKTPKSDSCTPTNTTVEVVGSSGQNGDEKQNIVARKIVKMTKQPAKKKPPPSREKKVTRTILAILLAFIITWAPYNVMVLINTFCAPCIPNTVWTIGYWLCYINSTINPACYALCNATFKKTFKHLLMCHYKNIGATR

[32] = target: Sodium-dependent noradrenaline transporter (Homo sapiens) (UniProt P23975); assay: norepinephrine transporter Eurofins-Cerep binding assay; parameters: ligand concentration 1 nM; details: Compound concentration 10.0 uM
[33] = target: Alpha-1A adrenergic receptor (Homo sapiens) (UniProt P35348); assay: Agonist activity in the Eurofins Cerep SafetyScreen44 (BI) against ALPHA1AH_ANTAG by Scintillation counting (Cerep_2338); details: Compound concentration 10.0 uM
[34] = target: Beta-2 adrenergic receptor (Homo sapiens) (UniProt P07550); assay: beta 2 Eurofins-Cerep binding assay; details: Compound concentration 10.0 uM
Homo sapiens = organism: Homo sapiens; assay: Agonist activity in the Eurofins Cerep SafetyScreen44 (BI) against N_NEURO_A4B2 by Radioligand Binding (Cerep_3029); format: protein-complex assay; details: Compound concentration 10.0 uM
[35] = target: Tyrosine-protein kinase Lck (Homo sapiens) (UniProt P06239); assay: Inhibitor of LCK_CE in the Eurofins Cerep SafetyScreen44 (BI) by lanthanide chelation excitation (Cerep_2906); details: Compound concentration 10.0 uM
Tyrosine-protein kinase Lck (Homo sapiens), sequence (P06239 2-509 limits assumed): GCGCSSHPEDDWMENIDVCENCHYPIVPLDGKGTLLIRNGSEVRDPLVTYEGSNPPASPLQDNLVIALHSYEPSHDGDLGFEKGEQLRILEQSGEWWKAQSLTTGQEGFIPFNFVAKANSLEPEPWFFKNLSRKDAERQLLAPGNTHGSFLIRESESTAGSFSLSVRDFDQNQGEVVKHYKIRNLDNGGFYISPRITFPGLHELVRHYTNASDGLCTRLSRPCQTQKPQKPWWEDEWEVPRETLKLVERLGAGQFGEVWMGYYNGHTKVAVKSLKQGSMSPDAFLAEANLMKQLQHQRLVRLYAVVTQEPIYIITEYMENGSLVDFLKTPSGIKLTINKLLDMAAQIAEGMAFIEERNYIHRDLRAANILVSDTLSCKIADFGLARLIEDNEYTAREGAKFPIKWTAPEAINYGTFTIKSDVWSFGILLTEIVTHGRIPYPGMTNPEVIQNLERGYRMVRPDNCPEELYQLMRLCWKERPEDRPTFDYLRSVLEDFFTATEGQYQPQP

[36] = target: MAO-A (amine oxidase [flavin-containing] A) (Homo sapiens, UniProt P21397); assay: Agonist activity in the Eurofins Cerep SafetyScreen44 (BI) against MAO-A_ANTAG by Scintillation counting (Cerep_443); parameters: scale not given: the % may be the effect or the level left; details: rat; compound concentration 10 uM; target entry is the homologue from another species; read-out: % Ctrl
[37] = target: Androgen receptor (Homo sapiens) (UniProt P10275); details: Compound concentration 10.0 uM
Description: Activity against ANDROGEN/H in the Eurofins Cerep SafetyScreen44 (BI) by Radioactive Assay (Cerep_933)

[38] = target: Delta-type opioid receptor (Homo sapiens) (UniProt P41143); assay: delta (DOP) Eurofins-Cerep binding assay; parameters: ligand concentration 0.5 nM; details: Compound concentration 10.0 uM
[39] = target: L-type calcium channel (dihydropyridine site), Cav1.2 alpha-1C (Rattus norvegicus, UniProt P22002); assay: Inhibitor of CA+/DHPSI/R in the Eurofins Cerep SafetyScreen44 (BI) by Radioactive Assay (Cerep_161); format: protein assay; parameters: scale not given: the % may be the effect or the level left; details: rat brain, probe [3H](+)PN200-110, compound concentration 10 uM, read-out: % Ctrl
[40] = target: 5-hydroxytryptamine receptor 1B (Homo sapiens) (UniProt P28222); assay: 5-HT1B Eurofins-Cerep binding assay; parameters: ligand concentration 1 nM; details: Compound concentration 10.0 uM
[41] = target: Beta-1 adrenergic receptor (Homo sapiens) (UniProt P08588); assay: beta 1 Eurofins-Cerep binding assay; parameters: ligand concentration 0.3 nM; details: Compound concentration 10.0 uM
Beta-1 adrenergic receptor (Homo sapiens), sequence (P08588 whole entry, looked up): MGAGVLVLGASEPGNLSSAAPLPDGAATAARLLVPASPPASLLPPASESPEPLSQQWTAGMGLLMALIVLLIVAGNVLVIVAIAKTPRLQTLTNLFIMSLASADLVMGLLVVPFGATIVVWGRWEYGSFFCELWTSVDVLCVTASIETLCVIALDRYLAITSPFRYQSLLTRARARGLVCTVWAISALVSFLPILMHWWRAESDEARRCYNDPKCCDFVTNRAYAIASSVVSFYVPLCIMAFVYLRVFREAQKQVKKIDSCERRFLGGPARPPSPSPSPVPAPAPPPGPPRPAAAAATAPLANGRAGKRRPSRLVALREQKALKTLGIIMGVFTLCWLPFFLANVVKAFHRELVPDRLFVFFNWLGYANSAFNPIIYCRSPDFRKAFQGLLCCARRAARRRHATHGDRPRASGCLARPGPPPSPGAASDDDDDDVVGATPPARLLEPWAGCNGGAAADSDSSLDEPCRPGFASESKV

[42] = target: Sodium-dependent serotonin transporter (Homo sapiens) (UniProt P31645); assay: 5-HT transporter Eurofins-Cerep binding assay; parameters: ligand concentration 2 nM; details: Compound concentration 10.0 uM

Cc1nnc2n1-c1sc3c(c1C(c1ccccc1Cl)=NC2)C[C@@H](C(=O)N1CCOCC1)C3
660 nM (not active): Kd [27]
103% (not active): activity at 10 µM [39]
93% (not active): activity at 10 µM (hERG (KCNH2))
107% (not active): activity at 10 µM [36]
inactive: residual activity [1] 102% | residual activity [2] 100% | residual activity [3] 96% | residual activity [4] 97% | residual activity [5] 96% | residual activity [6] 102% | residual activity [7] 84% | residual activity [8] 88% | residual activity (Rattus norvegicus [9]) 102% | residual activity [10] 92% | residual activity [11] 109% | residual activity [12] 107% | residual activity [13] 104% | residual activity [14] 103% | residual activity [15] 123% | residual activity [16] 84% | residual activity [17] 109% | residual activity [18] 90% | residual activity [19] 104% | residual activity [20] 97% | residual activity [21] 97% | residual activity [22] 100% | residual activity [23] 100% | residual activity [24] 97% | residual activity [25] 106% | residual activity [26] 115% | residual activity [28] 103% | residual activity [29] 91% | residual activity (Rattus norvegicus [30]) 101% | residual activity [31] 82% | residual activity [32] 99% | residual activity [33] 95% | residual activity [34] 103% | residual activity (Homo sapiens) 94% | residual activity [35] 106% | residual activity [37] 106% | residual activity [38] 101% | residual activity [40] 65% | residual activity [41] 88% | residual activity [42] 98%
